Consider two compounds from US20100144725A1, “PESTICIDAL COMBINATIONS” (SYNGENTA CROP PROTECTION, INC., priority 2007, published 2010).

One experiment concerns Pyrenophora graminea. Kind of experiment: Fungal growth assay, Pyrenophora graminea (leaf stripe of barley), microtiter plate, photometric. Format: cell-based. The settings on record: 72 hrs. On the procedure: The action to be expected E for a given active ingredient combination obeys the so-called COLBY formula and can be calculated as follows (COLBY, S. R. “Calculating synergistic and antagonistic responses of herbicide combination”. Weeds, Vol. 15, pages 20-22; 1967): If the action actually observed (O) is greater than the expected action (E), then the action of the combination is super-additive, i.e. there is a synergistic effect. Inhibiting of fungal growth of the following fungi are carried out by fungal growth assays (detailed below). Pyrenophora […] stripe of barley): Conidia of the fungus from cryogenic storage are directly mixed into nutrient broth (PDB potato dextrose broth). After placing a (DMSO) solution of the test compounds into a microtiter plate (96-well format) the nutrient broth containing the fungal spores is added. The test plates are incubated at 24 C and the inhibition of growth is measured photometrically after 72 hrs. The fungicide interactions in the combinations are calculated according to COLBY method, where A is thiabendazole and B is a mixture of tebuconazole and azoxystrobin in a mass ratio of 2:1. The results for A & B solo are shown in Table below and those for the combinations in a range of ratios in Table 1.

Another experiment has as its system Rhizoctonia solani. The experiment in a line: Fungal growth assay, Rhizoctonia solani (foot rot, damping-off), microtiter plate, photometric. Format: cell-based. The conditions noted are these: 72 hrs. On the procedure: The action to be expected E for a given active ingredient combination obeys the so-called COLBY formula and can be calculated as follows (COLBY, S. R. “Calculating synergistic and antagonistic responses of herbicide combination”. Weeds, Vol. 15, pages 20-22; 1967): If the action actually observed (O) is greater than the expected action (E), then the action of the combination is super-additive, i.e. there is a synergistic effect. Inhibiting of fungal growth of the following fungi are carried out by fungal growth assays (detailed below). Rhizoctonia solani (foot rot, damping-off): Mycelial fragments of a newly grown culture of the fungus are directly mixed into nutrient broth (PDB potato dextrose broth). After placing a (DMSO) solution of the test compounds into a microtiter plate (96-well format) the nutrient broth containing the fungal spores is added. The test plates were incubated at 24 C and the inhibition of growth is measured photometrically after 72 hrs. The fungicide interactions in the combinations are calculated according to COLBY method, where C is ipconazole and D is a mixture of tebuconazole and azoxystrobin in a mass ratio of 2:1. The results for C & D solo are shown in Table below and those for the combinations in a range of ratios in Table 2.

Turning to `c1ccc2[nH]c(-c3cscn3)nc2c1` [A, thiabendazole], the “Observed control in %” value was 0% with Pyrenophora graminea (A solo 0.004 ppm); 0% in the experiment with Pyrenophora graminea (A solo 0.008 ppm); 0% in the experiment with Pyrenophora graminea (A solo 0.016 ppm); 0% with Pyrenophora graminea (A solo 0.031 ppm); 0% in the experiment with Pyrenophora graminea (A solo 0.063 ppm); 1% in the experiment on Pyrenophora graminea (A solo 0.125 ppm). Further, the “Observed control in %” value with Pyrenophora graminea (A solo 0.25 ppm) is given as 10%; with Pyrenophora graminea (A solo 0.5 ppm) it was 25%; in the experiment with Pyrenophora graminea (A solo 1.0 ppm), 29%; in the experiment on Pyrenophora graminea (A solo 2.0 ppm) it was 22%.
For `CC(C)C1CCC(Cc2ccc(Cl)cc2)C1(O)Cn1cncn1` (centres unmarked) [C, ipconazole], the “Observed control in %” value was 9% with Rhizoctonia solani (C solo 0.004 ppm); 3% in the experiment with Rhizoctonia solani (C solo 0.008 ppm); 0% with Rhizoctonia solani (C solo 0.016 ppm); 7% with Rhizoctonia solani (C solo 0.031 ppm); 0% in the experiment with Rhizoctonia solani (C solo 0.063 ppm); 0% in the experiment on Rhizoctonia solani (C solo 0.125 ppm). Further, the “Observed control in %” value is 2% in the experiment with Rhizoctonia solani (C solo 0.25 ppm), 5% with Rhizoctonia solani (C solo 0.5 ppm), 0% in the experiment with Rhizoctonia solani (C solo 1.0 ppm) and 9% in the experiment with Rhizoctonia solani (C solo 2.0 ppm).
